From US20040224884A1, “Methods of screening for apoptosis-controlling agents for bone anabolic therapies and uses thereof” (priority 1998, published 2004)
Several values for one entry are separate records, joined by “and”; a condition that tells them apart may be missing. Identical values can stand only once.

What was measured:
[1] = test system: extracellular signal regulated kinases (ERKs) 1 and 2; assay: Western blot of phosphorylated ERK1/2 in MLO-Y4 cells; type: cell-based, murine
Experimental: (§1) MLO-Y4 osteocytic cells were incubated for 25 minutes in serum -free medium. […] Cell lysates were prepared and proteins were separated by electrophoresis in polyacrylamide gels and transferred to PVDF membranes. Western blotting was performed using a specific antibody recognizing phosphorylated ERKs 1 and 2, followed by reblotting with an antibody recognizing total ERKs. Blots were developed by enhanced chemiluminescence.
MLO-Y4 cells were incubated for 25 minutes in serum-free medium in the presence or absence of 50 μM PD98059. […] Cell lysates were prepared and proteins were separated by electrophoresis in polyacrylamide gels and transferred to PVDF membranes. Western blotting was performed using a specific antibody recognizing phosphorylated ERKs 1 and 2, followed by reblotting with an antibody recognizing total ERKs. Blots were developed by enhanced chemiluminescence.
as §1, with “In this experiment, MLO-Y4” for “MLO-Y4”, “serum-free” for “serum -free”, “extracellular signal regulated kinases” for “ERKs”, “extracellular signal regulated kinases.” for “ERKs.”, “chemiluminescence. […] This effect is too rapid to be accounted for by the classical mechanism of estrogen action.” for “chemiluminescence.”
In this experiment, MLO-Y4 osteocytic cells were incubated for 25 minutes in serum-free medium in the presence or absence of 50 μM PD98059. […] Cell lysates were prepared and proteins were separated by electrophoresis in polyacrylamide gels and transferred to PVDF membranes. Western blotting was performed using a specific antibody recognizing phosphorylated extracellular signal regulated kinases 1 and 2, followed by reblotting with an antibody recognizing total extracellular signal regulated kinases. Blots were developed by enhanced chemiluminescence.

[2] = BMD by dual-energy x-ray absorptiometry in intact or ovariectomized mice; type: in vivo; set-up: global 1 BMD / hindquart BMD (1) / spine 1 BMD / global 2 BMD / hindquart BMD (2) / spine 2 BMD / global 1 BMD (mean) / hindquart BMD (1) (mean) / spine 1 BMD (mean) / global 2 BMD (mean) / hindquart BMD (2) (mean) / spine 2 BMD (mean): unit not given here; settings: for Global BMD: 2000 ng/g body weight for 28 days; for global 2 BMD / hindquart BMD (2) / spine 2 BMD / global 2 BMD (mean) / hindquart BMD (2) (mean) / spine 2 BMD (mean): 2000 ng/g for 28 days, end of experiment; for global 2 BMD / hindquart BMD (2) / spine 2 BMD / global 1 BMD / hindquart BMD (1) / spine 1 BMD: individual animals; for global 1 BMD / hindquart BMD (1) / spine 1 BMD / global 1 BMD (mean) / hindquart BMD (1) (mean) / spine 1 BMD (mean): 2000 ng/g group, day 0 (initial)
Experimental: In a representative experiment of this sort, six 4-5 month old female mice per group are screened twice for BMD in a four week period immediately prior to the initiation of the experiment to establish that peak adult bone mass has been attained. A subset of mice are then ovariectomized. Intact and ovariectomized mice are treated with vehicle, or 20, 200 or 2000 ng/g body weight estratriene-3-ol or another test compound.
Stock solutions of the test agents (10,000 μg/ml) are maintained in approximately 2.0 ml of 95% ethanol. These stocks are diluted in 95% ethanol to make 1000 μg/ml and 100 μg/ml concentrations. The concentration of the stocks is checked spectrophotometrically. For each animal injection, the test agent is diluted in sesame oil and sonicated. Test agents are administered for 28 days by subcutaneous injections on alternative days. The mice are weighed weekly and serum samples are collected at appropriate times for analysis of bone biochemical markers, such as osteocalcin or collagen cross-links. Tetracycline labeling is performed by administration of the antibiotic (30 mg/kg) at 2 and 8 days prior to the end of each experiment.
During the 28 day experiment, BMD is determined in live animals at day 0, 14 and 28. Following animal sacrifice at the end of the experiment, the vertebral bones L1-L4 are collected for fixation and embedded undecalcified in methyimethacrylate plastic for the determination of the prevalence of osteoblast and osteocyte apoptosis and other static and dynamic histomorphometric measurements. L5 vertebrae are isolated for determining anti-fracture efficacy of the compounds by assaying compression, 3 point bending and other appropriate biomechanical tests. Results confirming the expected efficacy of these compounds show decreased prevalence of osteoblast and/or osteocyte apoptosis, and/or positive BMD changes, and/or increased cancellous bone area, and/or increased rate of bone formation, and/or increased biomechanical strength.
As an example, the results of an experiment whereby 2000 ng/g body weight of estratriene-3-ol was administered for 28 days to estrogen-replete (intact) or estrogen-deficient (ovariectomized) mice are shown in Table 2.
Each row represents values for individual animals. The first three sets of numbers represent the initial BMD measurements (by dual-energy x-ray absorptiometry with Hologic QDR2000 plus, using customized software) at day 0 and the last three BMD measurements at the end of the experiment. Global=BMD of the entire skeleton minus the head and tail; hindquarters=the mean BMD of both hindlimbs; spine=the BMD of cervical, thoracic and lumbar spine.

[3] = Vertebral compression strength of fifth lumbar vertebrae (L5); type: in vivo, mice; settings: 2000 ng/g body weight for 28 days
Experimental: In a representative experiment of this sort, seven 4-5 month old female mice per group-are screened twice for BMD in a four week period immediately prior to the initiation of the experiment to establish that peak adult bone mass has been attained. A subset of mice are then ovariectomized. Intact and ovariectomized mice are treated with vehicle, or 20, 200 or 2000 ng/g body weight estratriene-3-ol or another ANGEL compound. […] Ultimate load bearing properties of the fifth lumbar murine vertebrae (L5) is determined. This is done using a servohydraulic axial-torsional material testing machine (Model MTS 810 Bionx; MTS Systems Corp., Eden Prairie, Minn.) and a Lebow load cell (Eaton Products, Troy, Mich.). Data are recorded and analyzed using the LabVIEW software package and an acquisition/signal conditioning board (Model NB-MIO-16, National Instruments Corporation, Austin, Tex.). The L5 specimens that is used for ultimate load bearing is cleaned of surrounding soft tissue and the length and diameter recorded with a digital caliper at a resolution of 0.01 mm (Mitutoyo Model #500-196, Ace Tools, Ft. Smith, Ariz.). […] Vertebrae are individually compressed between parallel loading platens along the cephalocaudad axis until failure and the ultimate load (in Newtons) and displacement (in mm) are recorded. […]

SMILES: C[C@@]12CCC[C@H]1[C@@H]1CCc3cc(O)ccc3[C@H]1CC2 [estratriene-3-ol]
- activation (phosphorylation) of ERKs ([1]; 10^−8 M, 5, 15 or 30 minutes): activated
- ability to activate ERKs in the presence of PD98059 ([1]; 10^−8 M, 5 minutes, 50 μM PD98059): abrogated
- Global BMD ([2]; Ovx mice, p < 0.00001): 0.0555 ± 0.0011 g/cm2
- global 2 BMD ([2]; Ovx mice): 0.0565 and 0.0557 and 0.0548 and 0.0545 and 0.0564 and 0.0568 and 0.0550 and 0.0539
- hindquart BMD (2) ([2]; Ovx mice): 0.0602 and 0.0632 and 0.0599 (2×) and 0.0624 and 0.0598 and 0.0647 and 0.0630
- spine 2 BMD ([2]; Ovx mice): 0.0608 and 0.0585 and 0.0584 and 0.0598 and 0.0610 and 0.0625 and 0.0578 and 0.0605
- global 2 BMD (mean) ([2]; Ovx mice): 0.0555
- hindquart BMD (2) (mean) ([2]; Ovx mice): 0.0618
- spine 2 BMD (mean) ([2]; Ovx mice): 0.0599
- global 1 BMD ([2]; Ovx mice): 0.0505 and 0.0542 and 0.0496 and 0.0540 and 0.0526 and 0.0569 and 0.0565 and 0.0528
- hindquart BMD (1) ([2]; Ovx mice): 0.0527 and 0.0588 and 0.0504 and 0.0596 and 0.0547 and 0.0604 and 0.0591 and 0.0582
- spine 1 BMD ([2]; Ovx mice): 0.0547 and 0.0581 and 0.0542 and 0.0586 and 0.0580 and 0.0628 and 0.0603 and 0.0568
- global 1 BMD (mean) ([2]; Ovx mice): 0.0534
- hindquart BMD (1) (mean) ([2]; Ovx mice): 0.0573
- spine 1 BMD (mean) ([2]; Ovx mice): 0.0579
- Global BMD ([2]; intact mice, p < 0.002): 0.0554 ± 0.0015 g/cm2
- global 2 BMD ([2]; intact mice): 0.0550 and 0.0543 and 0.0541 and 0.0568 (2×) and 0.0537 and 0.0574
- hindquart BMD (2) ([2]; intact mice): 0.0585 and 0.0603 and 0.0619 and 0.0629 and 0.0640 and 0.0554 and 0.0605
- spine 2 BMD ([2]; intact mice): 0.0602 and 0.0604 and 0.0601 and 0.0613 and 0.0620 and 0.0588 and 0.0632
- global 2 BMD (mean) ([2]; intact mice): 0.0554
- hindquart BMD (2) (mean) ([2]; intact mice): 0.0605
- spine 2 BMD (mean) ([2]; intact mice): 0.0609
- global 1 BMD ([2]; intact mice): 0.0486 and 0.0511 and 0.0543 and 0.0537 and 0.0533 and 0.0521 and 0.0560
- hindquart BMD (1) ([2]; intact mice): 0.0509 and 0.0565 and 0.0605 and 0.0577 and 0.0546 and 0.0544 and 0.0587
- spine 1 BMD ([2]; intact mice): 0.0511 and 0.0560 and 0.0593 and 0.0584 and 0.0571 and 0.0555 and 0.0623
- global 1 BMD (mean) ([2]; intact mice): 0.0527
- hindquart BMD (1) (mean) ([2]; intact mice): 0.0562
- spine 1 BMD (mean) ([2]; intact mice): 0.0571
- Vertebral Compression ([3]; Ovx mice, p < 0.00001): 85.57 ± 10.17 Newtons
- Vertebral Compression ([3]; intact mice, p < 0.006): 96.26 ± 15.92 Newtons
